34 compounds from US7211572B2 (Japan Tobacco Inc., priority 2003, dated 2007) can be followed below.

The structures appear in SMILES notation. Where a name gives a salt, the structure may show the parent alone. Bounds are passed on as bounds.

For this assay, the target named is T1, HIV integrase (Human immunodeficiency virus type 1 group M subtype B, UniProt P12497, F1332H).
T1 construct: HIV integrase full length gene; made in house; host or cells: Escherichia coli BL21(DE3), plasmid pET21a-INH
The experiment in a line: Determination of enzyme (HIV integrase) inhibitory activity. It is filed as biochemical. The conditions noted are these: recombinant HIV integrase (F185H), strand transfer ELISA, absorbance at 450 nm. Put shortly:
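Full-length integrase with F185H, expressed in E. coli and purified, was reacted for 60 min at 37 °C with compound and biotinylated donor DNA bound to streptavidin plates. Target DNA was added for 10 min, then anti-digoxigenin-peroxidase detection at A450; IC50 from % inhibition versus enzyme-free blank.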
A general note: An ELISA detects its analyte on a solid surface through an enzyme-linked reagent.
One may read the IC50 as the midpoint of a concentration-inhibition curve. As for `O=C(c1cn2ccn(Cc3cccc(Cl)c3)c(=O)c2c(O)c1=O)N1CCC(O)C1` (stereo not shown) [Example 198, 2-(3-chlorobenzyl)-9-hydroxy-7-(3-hydroxypyrrolidine-1-carbonyl)-2H-pyrido[1,2-a]pyrazine-1,8-dione hydrochloride], the concentration for half-maximal inhibition (IC50) was 0.01 to 0.1 µM. In the case of `O=C1c2c(O)c(=O)c(-c3ccccn3)cn2CCN1Cc1cccc(Cl)c1` [Example 282, 2-(3-chlorobenzyl)-9-hydroxy-7-(pyridin-2-yl)-3,4-dihydro-2H-pyrido[1,2-a]pyrazine-1,8-dione hydrochloride] it was < 0.01 µM.

Take `CC(=O)N(CC(C)C)c1cn2ccn(Cc3cccc(Cl)c3)c(=O)c2c(O)c1=O` [Example 302, N-[2-(3-chlorobenzyl)-9-hydroxy-1,8-dioxo-1,8-dihydro-2H-pyrido[1,2-a]pyrazin-7-yl]-N-isobutylacetamide]: the concentration for half-maximal inhibition (IC50) lay in the range of 0.01 to 0.1 µM. Regarding `COc1cc(Cn2ccn3ccc(=O)c(O)c3c2=O)ccc1Cl` [Example 186, 2-(4-chloro-3-methoxybenzyl)-9-hydroxy-2H-pyrido[1,2-a]pyrazine-1,8-dione hydrochloride], the concentration for half-maximal inhibition (IC50) lay within 0.01 to 0.1 µM.

For the compound `CC(C)Oc1cc(Cl)cc(CN2CCn3cc(-c4nccs4)c(=O)c(O)c3C2=O)c1` [Example 397, 2-(3-chloro-5-isopropoxybenzyl)-9-hydroxy-7-(thiazol-2-yl)-3,4-dihydro-2H-pyrido[1,2-a]pyrazine-1,8-dione hydrochloride], the half-inhibitory concentration (IC50) lay in the range of 0.01 to 0.1 µM. In the case of `CCNc1cn2ccn(Cc3cccc(Cl)c3)c(=O)c2c(O)c1=O` [Example 285, 2-(3-chlorobenzyl)-7-ethylamino-9-hydroxy-2H-pyrido[1,2-a]pyrazine-1,8-dione hydrochloride] it was 0.01 to 0.1 µM.

Consider `CC(=O)c1cn2ccn(Cc3cccc(Cl)c3)c(=O)c2c(O)c1=O` [Example 204, 7-acetyl-2-(3-chlorobenzyl)-9-hydroxy-2H-pyrido[1,2-a]pyrazine-1,8-dione hydrochloride], for which the IC50 was < 0.01 µM. The figure for `CS(=O)(=O)Cc1cc(=O)c(O)c2n1CCN(Cc1ccc(Cl)c(Cl)c1)C2=O` [Example 31, 2-(3,4-dichlorobenzyl)-9-hydroxy-6-methanesulfonylmethyl-3,4-dihydro-2H-pyrido[1,2-a]pyrazine-1,8-dione] is 0.01 to 0.1 µM.

Consider `CC(C)Cc1cc(=O)c(O)c2n1CCN(Cc1ccc(Cl)c(Cl)c1)C2=O` [Example 54, 2-(3,4-dichlorobenzyl)-9-hydroxy-6-isobutyl-3,4-dihydro-2H-pyrido[1,2-a]pyrazine-1,8-dione], for which the IC50 lay in the range of 0.01 to 0.1 µM. In the case of `Cc1nsc(-c2cn3c(c(O)c2=O)C(=O)N(Cc2cccc(Cl)c2)CC3)n1` [Example 300, 2-(3-chlorobenzyl)-9-hydroxy-7-(3-methyl-1,2,4-thiadiazol-5-yl)-3,4-dihydro-2H-pyrido[1,2-a]pyrazine-1,8-dione hydrochloride] it was 0.01 to 0.1 µM; in that of `O=C(NCc1ccccn1)c1cn2c(c(O)c1=O)C(=O)N(Cc1ccc(F)cc1)CC2` [Example 410, N-(pyridin-2-ylmethyl)-2-(4-fluorobenzyl)-9-hydroxy-1,8-dioxo-1,3,4,8-tetrahydro-2H-pyrido[1,2-a]pyrazine-7-carboxamide hydrochloride], 0.01 to 0.1 µM; in that of `O=c1c(-c2nnc[nH]2)cn2ccn(Cc3cccc(Cl)c3)c(=O)c2c1O` [Example 164, 2-(3-chlorobenzyl)-9-hydroxy-7-(4H-1,2,4-triazol-3-yl)-2H-pyrido[1,2-a]pyrazine-1,8-dione hydrochloride], 0.01 to 0.1 µM.

On to `CC(C)S(=O)(=O)Cc1cc(=O)c(O)c2n1CCN(Cc1ccc(Cl)c(Cl)c1)C2=O` [Example 37, 2-(3,4-dichlorobenzyl)-9-hydroxy-6-isopropylsulfonylmethyl-3,4-dihydro-2H-pyrido[1,2-a]pyrazine-1,8-dione], for which the half-maximal inhibitory concentration (IC50) is 0.01 to 0.1 µM. The figure for `O=C(NCc1cccnc1)c1cn2c(c(O)c1=O)C(=O)N(Cc1cccc(Cl)c1)CC2` [Example 371, N-(pyridin-3-ylmethyl)-2-(3-chlorobenzyl)-9-hydroxy-1,8-dioxo-1,3,4,8-tetrahydro-2H-pyrido[1,2-a]pyrazine-7-carboxamide hydrochloride] is 0.01 to 0.1 µM; for `O=C(Nc1ccccc1)c1cn2ccn(Cc3cccc(Cl)c3)c(=O)c2c(O)c1=O` [Example 196, N-phenyl-2-(3-chlorobenzyl)-9-hydroxy-1,8-dioxo-1,8-dihydro-2H-pyrido[1,2-a]pyrazine-7-carboxamide hydrochloride] it is 0.01 to 0.1 µM; for `CC(C)(C(=O)c1cn2c(c(O)c1=O)C(=O)N(Cc1cccc(Cl)c1)CC2)c1ccccc1` [Example 272, 2-(3-chlorobenzyl)-9-hydroxy-7-(2-methyl-2-phenylpropionyl)-3,4-dihydro-2H-pyrido[1,2-a]pyrazine-1,8-dione] it is 0.01 to 0.1 µM. In the case of `O=c1c(-c2ccccn2)cn2ccn(Cc3cccc(F)c3)c(=O)c2c1O` [Example 365, 2-(3-fluorobenzyl)-9-hydroxy-7-(pyridin-2-yl)-2H-pyrido[1,2-a]pyrazine-1,8-dione hydrochloride] it was 0.01 to 0.1 µM; in that of `O=C1c2c(O)c(=O)c(-c3cnccn3)cn2CCN1Cc1ccc(F)cc1` [Example 417, 2-(4-fluorobenzyl)-9-hydroxy-7-(pyrazin-2-yl)-3,4-dihydro-2H-pyrido[1,2-a]pyrazine-1,8-dione hydrochloride], 0.01 to 0.1 µM; in that of `O=C(Cc1ccccn1)Nc1cn2ccn(Cc3cccc(Cl)c3)c(=O)c2c(O)c1=O` [Example 402, N-[2-(3-chlorobenzyl)-9-hydroxy-1,8-dioxo-1,8-dihydro-2H-pyrido[1,2-a]pyrazin-7-yl]-2-(pyridin-2-yl)acetamide hydrochloride], 0.01 to 0.1 µM.

Take `CC(=O)Nc1cn2ccn(Cc3cccc(Cl)c3F)c(=O)c2c(O)c1=O` [Example 325, N-[2-(3-chloro-2-fluorobenzyl)-9-hydroxy-1,8-dioxo-1,8-dihydro-2H-pyrido[1,2-a]pyrazin-7-yl]acetamide hydrochloride]: the IC50 was in the range of 0.01 to 0.1 µM. The figure for `COc1ccc(Cl)cc1Cn1ccn2ccc(=O)c(O)c2c1=O` [Example 202, 2-(5-chloro-2-methoxybenzyl)-9-hydroxy-2H-pyrido[1,2-a]pyrazine-1,8-dione hydrochloride] is 0.01 to 0.1 µM; for `O=C1c2c(O)c(=O)c(-c3nccs3)cn2CCN1Cc1ccccc1F` [Example 307, 2-(2-fluorobenzyl)-9-hydroxy-7-(thiazol-2-yl)-3,4-dihydro-2H-pyrido[1,2-a]pyrazine-1,8-dione] it is 0.1 to 1 µM; for `O=c1c(-c2ccccn2)cn2ccn(Cc3cccc(Cl)c3F)c(=O)c2c1O` [Example 364, 2-(3-chloro-2-fluorobenzyl)-9-hydroxy-7-(pyridin-2-yl)-2H-pyrido[1,2-a]pyrazine-1,8-dione hydrochloride] it is < 0.01 µM. With `COC(=O)c1cn(Cc2cccc(Cl)c2)c(=O)c2c(O)c(=O)ccn12` [Example 93, methyl 2-(3-chlorobenzyl)-9-hydroxy-1,8-dioxo-1,8-dihydro-2H-pyrido[1,2-a]pyrazine-4-carboxylate], the half-inhibitory concentration (IC50) is 0.01 to 0.1 µM. The figure for `COc1cccc(-c2cn3ccn(Cc4cccc(Cl)c4)c(=O)c3c(O)c2=O)c1` [Example 128, 2-(3-chlorobenzyl)-9-hydroxy-7-(3-methoxyphenyl)-2H-pyrido[1,2-a]pyrazine-1,8-dione hydrochloride] is 0.01 to 0.1 µM. The figure for `O=C1c2c(O)c(=O)c(-c3nccs3)cn2CCN1Cc1ccc(Cl)cc1OCc1ccccc1` [Example 359, 2-(2-benzyloxy-4-chlorobenzyl)-9-hydroxy-7-(thiazol-2-yl)-3,4-dihydro-2H-pyrido[1,2-a]pyrazine-1,8-dione hydrochloride] is 0.01 to 0.1 µM. In the case of `O=C(Cn1ccn2ccc(=O)c(O)c2c1=O)Nc1ccccc1` [Example 200, 2-(9-hydroxy-1,8-dioxo-1,8-dihydro-pyrido[1,2-a]pyrazin-2-yl)-N-phenylacetamide hydrochloride] it was 0.1 to 1 µM; in that of `O=c1c(CO)cn2ccn(Cc3cccc(Cl)c3)c(=O)c2c1O` [Example 216, 2-(3-chlorobenzyl)-9-hydroxy-7-hydroxymethyl-2H-pyrido[1,2-a]pyrazine-1,8-dione hydrochloride], 0.01 to 0.1 µM. Consider `O=C1c2c(O)c(=O)c(-c3nccs3)cn2CCN1CCCc1cccc(F)c1` [Example 315, 2-[3-(3-fluorophenyl)propyl]-9-hydroxy-7-(thiazol-2-yl)-3,4-dihydro-2H-pyrido[1,2-a]pyrazine-1,8-dione], for which the concentration for half-maximal inhibition (IC50) fell in the range of 0.01 to 0.1 µM. In the case of `O=c1c(-c2ccncc2)cn2ccn(Cc3cccc(F)c3)c(=O)c2c1O` [Example 375, 2-(3-fluorobenzyl)-9-hydroxy-7-(pyridin-4-yl)-2H-pyrido[1,2-a]pyrazine-1,8-dione hydrochloride] it was 0.01 to 0.1 µM; in that of `CC(C)c1cn(Cc2ccc(Cl)c(Cl)c2)c(=O)c2c(O)c(=O)ccn12` [Example 78, 2-(3,4-dichlorobenzyl)-9-hydroxy-4-isopropyl-2H-pyrido[1,2-a]pyrazine-1,8-dione], < 0.01 µM; in that of `CC(=O)c1cn(Cc2cccc(Cl)c2)c(=O)c2c(O)c(=O)ccn12` [Example 105, 4-acetyl-2-(3-chlorobenzyl)-9-hydroxy-2H-pyrido[1,2-a]pyrazine-1,8-dione], 0.01 to 0.1 µM.

Consider `CC(C)SCc1cc(=O)c(O)c2n1CCN(Cc1ccc(Cl)c(Cl)c1)C2=O` [Example 36, 2-(3,4-dichlorobenzyl)-9-hydroxy-6-isopropylsulfanylmethyl-3,4-dihydro-2H-pyrido[1,2-a]pyrazine-1,8-dione], for which the half-maximal inhibitory concentration (IC50) lay in the range of 0.01 to 0.1 µM. The figure for `O=C1c2c(O)c(=O)c(-c3nccs3)cn2CCN1Cc1ccc(F)cc1` [Example 309, 2-(4-fluorobenzyl)-9-hydroxy-7-(thiazol-2-yl)-3,4-dihydro-2H-pyrido[1,2-a]pyrazine-1,8-dione] is 0.01 to 0.1 µM.
